This passage reports IC50 results from publication PMC10415228 (Saudi Pharmaceutical Journal : SPJ, 2023).

In brackets after ≈: the same amount, converted by molar mass.

This test relates to trypsin (serine protease). Nature of the test: serine protease. The format is biochemical.

As to `O=c1c(O)c(-c2ccc(O)c(O)c2)oc2cc(O)cc(O)c12` [Quercetin], the IC50 (usually the concentration that inhibits the measured activity by half) came to 295.44 µg/mL (≈ 978 µM).
